The source of these data is ChEMBL document CHEMBL1129577, “Identification of a novel oxazolidinone (U-100480) with potent antimycobacterial activity” (1996).

Experiment [1] deals with Mycobacterium tuberculosis. In words: In vitro anti-mycobacterial activity against multiple resistant strains of Mycobacterium tuberculosis at 0.50 ug/mL. It counts as functional.
Experiment [2] has as its system Mycobacterium tuberculosis. In words: In vitro anti-mycobacterial activity against multiple resistant strains of Mycobacterium tuberculosis at 0.125 ug/mL. It counts as functional.

Turning to `CC(=O)NC[C@H]1CN(c2ccc(N3CCS(=O)(=O)CC3)c(F)c2)C(=O)O1`, the No. of strains in experiment [1] stood at 4. For `CC(=O)NC[C@H]1CN(c2ccc(N3CCSCC3)c(F)c2)C(=O)O1` [SUTEZOLID], the No. of strains in experiment [2] was 3; in experiment [1], 2.
